Assays:
Assay type in all cases: in vivo
Mythimna separata = test: Test of efficacy on Mythimna separata (treated artificial feed); conditions: second instar larvae, 1 μl of emulsion (I) (5% active ingredient) in 0.8 g artificial feed, fifth day, 25° C.
Experimental: 5 parts of the compound of the present invention, 93.6 parts of dimethylformamide, and 1.4 parts of polyoxyethylene alkyl aryl ether were mixed and dissolved to prepare emulsion (I) containing 5% of the active ingredient. For a control, 93.6 parts of dimethylformamide and 1.4 parts of polyoxyethylene alkyl aryl ether were mixed and dissolved to prepare emulsion (II). An insecticidal rate was calculated according to the following expression: Insecticidal rate (%)=(The number of dead insects/The number of tested insects)×100 A control rate was calculated according to the following expression: Control rate (%)={1−(Nt)/(Nc)}×100 • Nc: The number of parasites in an untreated plot • Nt: The number of parasites in a spray treated plot 0.8 g of commercially available artificial feed (Insecta LFS, manufactured by Nosan Corp.) and 1 μl of the emulsion (I) were well mixed to obtain test feed. A plastic test container (capacity: 1.4 ml) was packed with 0.2 g of the test feed per treatment plot. Then, two second instar larvae of Mythimna separata were inoculated to each treatment plot. A plastic lid was put on the test container so as to prevent escape of the second instar larvae of Mythimna separata. The container was placed in a thermostat chamber of 25° C. On the fifth day, the insecticidal rate and the food intake were examined. The test was conducted in duplicate. […]

Aphis craccivora = test: Test of efficacy on Aphis craccivora (spray on black-eyed peas); conditions: 125 ppm; sprayed; nymphs on black-eyed peas; after 4 days
Experimental: (§1) 5 parts of the compound of the present invention, 93.6 parts of dimethylformamide, and 1.4 parts of polyoxyethylene alkyl aryl ether were mixed and dissolved to prepare emulsion (I) containing 5% of the active ingredient.
(§2) An insecticidal rate was calculated according to the following expression: Insecticidal rate (%)=(The number of dead insects/The number of tested insects)×100 A control rate was calculated according to the following expression: Control rate (%)={1−(Nt)/(Nc)}×100 • Nc: The number of parasites in an untreated plot • Nt: The number of parasites in a spray treated plot
Seedlings of black-eyed peas were raised in 10-cm pots. Aphis craccivora nymphs were inoculated onto primary leaves. The emulsion (I) was diluted with water such that the concentration of the compound of the present invention was 125 ppm. The dilution was sprayed to the black-eyed peas parasitized by the Aphis craccivora nymphs. The black-eyed peas were placed in a thermostat chamber having a temperature of 25° C. and a humidity of 60%. Life and death of Aphis craccivora were determined after 4 days from the spraying, and the insecticidal rate was calculated. The test was conducted in duplicate.

Musca domestica = test: Test of efficacy on Musca domestica (treated lump sugar); conditions: 100 ppm on lump sugar; female adults; after 24 hours
Experimental: as §2
The compound of the present invention was diluted with acetone, and the dilution was added dropwise to 1 g of lump sugar such that the concentration was 100 ppm. The lump sugar was placed in a plastic cup, ten Musca domestica female adults were released, and a lid was put on the cup. The plastic cup was stored at 25° C. Life and death were determined after 24 hours from the release of the insects, and the insecticidal rate was calculated. The test was conducted in duplicate.

[1] = system: Phyllotreta striolata adults; test: Test of efficacy on Phyllotreta striolata (spray on Qing geng cai seedlings); conditions: 125 ppm, sprayed on Qing geng cai seedlings, after 7 days
Experimental: as §1, §2
The emulsion (I) was diluted with water such that the concentration of the compound of the present invention was 125 ppm to prepare a test chemical. The dilution was sprayed to Qing geng cai seedlings (at the seventh true leaf stage) planted in 10-cm pots. The Qing geng cai seedlings were dried in air and then placed in a plastic cup. Ten Phyllotreta striolata adults were released thereto. The plastic cup was stored in a thermostat chamber having a temperature of 25° C. and a humidity of 65%. Life and death were determined after 7 days from the release of the insects, and the insecticidal rate was calculated. The test was conducted in duplicate.

Plutella xylostella [2] = test: Test of efficacy on Plutella xylostella (cabbage leaf dip); conditions: 125 ppm; cabbage leaves dipped 30 seconds; second instar larvae; after 3 days
Experimental: 5 parts of the compound of the present invention, 93.6 parts of dimethylformamide, and 1.4 parts of polyoxyethylene alkyl aryl ether were mixed and dissolved to prepare emulsion (I) containing 5% of the active ingredient. An insecticidal rate was calculated according to the following expression: Insecticidal rate (%)=(The number of dead insects/The number of tested insects)×100 A control rate was calculated according to the following expression: Control rate (%)={1−(Nt)/(Nc)}×100 • Nc: The number of parasites in an untreated plot • Nt: The number of parasites in a spray treated plot The emulsion (I) was diluted with water such that the concentration of the compound of the present invention was 125 ppm. Cabbage leaves were dipped in the dilution for 30 seconds. The resulting cabbage leaves were placed in a petri dish. Five second instar larvae of Plutella xylostella were released thereto. The petri dish was placed in a thermostat chamber having a temperature of 25° C. and a humidity of 60%. Life and death were determined after 3 days from the release of the insects, and the insecticidal rate was calculated. The test was conducted in duplicate.

Plutella xylostella [3] = test: Test of soil irrigation treatment against Plutella xylostella; conditions: investigated after 3 days; for Control rate % 21 days after: first instar larvae inoculated 21 days after transplant; for Control rate % 28 days after: first instar larvae inoculated 28 days after transplant
Experimental: 5 parts of the compound of the present invention, 93.6 parts of dimethylformamide, and 1.4 parts of polyoxyethylene alkyl aryl ether were mixed and dissolved to prepare emulsion (I) containing 5% of the active ingredient. An insecticidal rate was calculated according to the following expression: Insecticidal rate (%)=(The number of dead insects/The number of tested insects)×100 A control rate was calculated according to the following expression: Control rate (%)={1−(Nt)/(Nc)}×100 • Nc: The number of parasites in an untreated plot • Nt: The number of parasites in a spray treated plot The emulsion (I) was diluted with water such that the concentration of the compound of the present invention was 500 ppm or 250 ppm. Then, 500 mL of the dilution was subjected to irrigation treatment per 128-hole cell tray in which cabbage seedlings were planted. The cell seedlings were transplanted to No. 4 pots and maintained in a thermostat chamber having a temperature of 25° C. and a humidity of 65%. Then, 50 first instar larvae of Plutella xylostella were inoculated on the whole of a cabbage after 21 days and 28 days from the transplant, respectively. The life and the death of Plutella xylostella were investigated after 3 days, and a control rate was calculated according to the following expression. The test was conducted in quadruplicate. Control rate (%)={1−(Nt)/(Nc)}×100 • Nc: The number of parasites in an untreated plot • Nt: The number of parasites in a spray treated plot

Aphis gossypii = test: Test of efficacy on Aphis gossypii (spray on cucumbers); conditions: 125 ppm; sprayed; first instar larvae on cucumbers; after 5 days
Experimental: 5 parts of the compound of the present invention, 93.6 parts of dimethylformamide, and 1.4 parts of polyoxyethylene alkyl aryl ether were mixed and dissolved to prepare emulsion (I) containing 5% of the active ingredient. An insecticidal rate was calculated according to the following expression: Insecticidal rate (%)=(The number of dead insects/The number of tested insects)×100 A control rate was calculated according to the following expression: Control rate (%)={1−(Nt)/(Nc)}×100 • Nc: The number of parasites in an untreated plot • Nt: The number of parasites in a spray treated plot Cucumbers were sown in a 10-cm pot. An Aphis gossypii female adult was released to the cucumbers after 10 days from sprouting. On the next day, born first instar larvae were left, and the female adult was removed. Emulsion (I) was diluted with water such that the concentration of the compound of the present invention was 125 ppm. The dilution was sprayed to the cucumbers. The cucumbers were placed in a thermostat chamber having a temperature of 25° C. and a humidity of 60%. Life and death of Aphis gossypii were determined after 5 days, and the insecticidal rate was calculated.

[4] = 250 ppm soil irrigation of cabbage seedlings
[5] = 500 ppm soil irrigation of cabbage seedlings

SMILES: CCS(=O)(=O)c1cc(C2CC2)c[n+]([O-])c1-c1nc2cc(S(=O)(=O)C(F)(F)F)ccc2o1 [A-1, 5-cyclopropyl-3-(ethylsulfonyl)-2-(5-((trifluoromethyl)sulfonyl)benzo[d]oxazol-2-yl)pyridine 1-oxide]
- insecticidal rate (Mythimna separata; stated as alternative to food intake ('or')): 100%
- food intake as compared with the control plot (Mythimna separata; stated as alternative to insecticidal rate ('or')): ≤ 10%
- insecticidal rate (Aphis craccivora): ≥ 80%
- insecticidal rate (Musca domestica): ≥ 80%
- insecticidal rate [1]: ≥ 80%
- insecticidal rate (Plutella xylostella [2]): ≥ 80%
- Control rate % 21 days after (Plutella xylostella [3]; [4]): 98%
- Control rate % 28 days after (Plutella xylostella [3]; [4]): 99%
- Control rate % 21 days after (Plutella xylostella [3]; [5]): 100%
- Control rate % 28 days after (Plutella xylostella [3]; [5]): 100%
- insecticidal rate (Aphis gossypii): ≥ 80%

Source: US12439920B2, “Pyridine n-oxide compound and pest control agent” (Nippon Soda Co., Ltd., priority 2019, dated 2025)
